This experiment deals with T1, human PAD4 (Homo sapiens, UniProt Q9UM07).
T1 construct: human PAD4 (NM_012387), A2P663, was PCR amplified; His-SUMO (N, cleaved yes); made in house; host or cells: E. coli BL21(DE3)
T1 sequence (Q9UM07 2-663): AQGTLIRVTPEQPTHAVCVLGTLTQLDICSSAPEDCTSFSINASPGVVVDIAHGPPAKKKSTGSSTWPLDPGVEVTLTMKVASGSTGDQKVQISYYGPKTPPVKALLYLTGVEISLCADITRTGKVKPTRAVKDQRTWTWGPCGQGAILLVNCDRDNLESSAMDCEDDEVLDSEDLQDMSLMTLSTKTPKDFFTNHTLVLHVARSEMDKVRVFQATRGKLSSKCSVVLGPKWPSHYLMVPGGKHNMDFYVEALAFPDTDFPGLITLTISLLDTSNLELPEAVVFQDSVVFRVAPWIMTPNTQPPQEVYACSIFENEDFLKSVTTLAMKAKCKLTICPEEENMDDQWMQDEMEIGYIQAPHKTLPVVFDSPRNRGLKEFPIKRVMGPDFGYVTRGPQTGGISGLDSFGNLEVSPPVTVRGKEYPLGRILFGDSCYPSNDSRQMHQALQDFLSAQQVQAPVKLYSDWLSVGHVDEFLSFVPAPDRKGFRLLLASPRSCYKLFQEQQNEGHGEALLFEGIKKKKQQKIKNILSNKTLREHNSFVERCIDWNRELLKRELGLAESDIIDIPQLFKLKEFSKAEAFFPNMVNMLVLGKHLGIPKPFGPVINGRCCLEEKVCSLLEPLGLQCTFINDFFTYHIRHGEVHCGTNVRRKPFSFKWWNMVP
The experiment is described as follows: In vitro PAD4 BAEE biochemical assay. The following applies: human PAD4, BAEE substrate; 5 nM PAD4, 2 mM calcium chloride, 3 mM BAEE; geometric mean of multiple experiments. The method, boiled down: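 Tag-free recombinant hPAD4 (5 nM), 2 mM CaCl2, 3 mM BAEE, 50 mM MOPS pH 7.6, 2 mM DTT; 30 min compound preincubation, 2 h reaction, all 25 °C. EDTA quench; ammonia read via o-phthalaldehyde amine coupling, 1 h.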
As for `COc1cc(C(=O)N2[C@@H]3CC[C@@H](N)[C@H]2CC3)cc2nc(-c3cc4ccc(N(C(F)F)S(C)(=O)=O)nc4n3CC3CC3)c(C)n12` [Example 410, ~{N}-[2-[7-[(1~{R},2~{R}, 5~{R})-2-amino-8-azabicyclo[3.2.1]octane-8-carbonyl]-5-methoxy-3-methylimidazo[1,2-a]pyridin-2-yl]-1-(cyclopropylmethyl)pyrrolo [2,3-b]pyridin-6-yl]-~{N}-(difluoromethyl) methanesulfonamide], the IC50 was found to be 233 nM. As for `COc1cc(C(=O)N2[C@H]3CC[C@@H]2[C@H](N)[C@H](OCC(F)F)C3)cc2nc(-c3cc4ccc([C@@H](C)NC(=O)C56CC(F)(C5)C6)nc4n3CC3CC3)c(C)n12` [Example 18], the concentration for half-maximal inhibition (IC50) was 578 nM. Consider `COc1cc(C(=O)N2[C@H]3CC[C@@H]2[C@H](N)C3)cc2nc(-c3cc4ccc([C@@H](C)NC(=O)C5(O)CCCC5)nc4n3CC3CC3)c(C)n12` [Example 88, ~{N}-[(1~{R})-1-[2-[7-[(1~{R},2~{R},4~{S})-2-amino-7-azabicyclo[2.2.1]heptane-7-carbonyl]-5-methoxy-3-methylimidazo [1,2-a]pyridin-2-yl]-1-(cyclopropylmethyl)pyrrolo [2,3-b]pyridin-6-yl]ethyl]-1-hydroxycyclopentane-1-carboxamide], for which the half-inhibitory concentration (IC50) was found to be 44.2 nM. Take `COc1cc(C(=O)N2C[C@H]3CC[C@@H]2[C@@H]3N)cc2nc(-c3cc4ccc(N(C)S(C)(=O)=O)nc4n3C)c(C)n12` [Example 493, N-[2-[7-[(1R,4R, 7R)-7-amino-2-azabicyclo [2.2.1]heptane-2-carbonyl]-5-methoxy-3-methyl-imidazo[1,2-a]pyridin-2-yl]-1-methyl-pyrrolo[2,3-b]pyridin-6-yl]-N-methyl-methanesulfonamide]: the IC50 is 2500 nM. For `COc1cc(C(=O)N2C[C@H]3CCC[C@@H]2[C@@H]3N)cc2nc(-c3cc4ccc(N(C(F)F)S(C)(=O)=O)nc4n3CC3CC3)c(C)n12` [Example 330, N-[2-[7-[(1R,5R,8R)-8-amino-6-azabicyclo[3.2.1]octane-6-carbonyl]-5-methoxy-3-methyl-imidazo [1,2-a]pyridin-2-yl]-1-(cyclopropylmethyl)pyrrolo [2,3-b]pyridin-6-yl]-N-(difluoromethyl) methanesulfonamide], the IC50 was found to be 233 nM. Consider “3-[(1~{R})-1-[2-[7- [(1~{R},2~{R},4~{S})-2- amino-7- azabicyclo[2.2.1]heptane-7- carbonyl]-3-cyclopropyl-5- methoxyimidazo [1,2-a]pyridin-2-yl]-1- (cyclopropylmethyl)pyrrolo [2,3-b]pyridin-6-yl]ethyl]-1- [(6-methoxypyridin-2- yl)methyl]-1-methylurea [Example 219]”, for which the 50% inhibitory concentration (IC50) came out at 124 nM. On to `COc1cc(C(=O)N2[C@H]3CC[C@@H]2[C@H](N)C3)cc2nc(-c3cc4ccc(N5CC(c6ccccc6)CCS5(=O)=O)nc4n3CC3CC3)c(C)n12` (stereo partly drawn) [Example 453, [(1~{R},2~{R},4~{S})-2-amino-7-azabicyclo [2.2.1]heptan-7-yl]-[2-[1-(cyclopropylmethyl)-6-(1,1-dioxo-4-phenylthiazinan-2-yl)pyrrolo[2,3-b]pyridin-2-yl]-5-methoxy-3-methylimidazo[1,2-a]pyridin-7-yl]methanone], for which the IC50 is 9320 nM. In the case of `COc1cc(C(=O)N2[C@H]3CC[C@@H]2[C@H](N)C3)cc2nc(-c3cc4ccc([C@@H](C)NC(=O)N5C[C@@H](F)[C@@H](F)C5)nc4n3CC3CC3)c(C)n12` [Example 245, (3~{R},4~{S})-~{N}-[(1~{R})-1-[2-[7-[(1~{R},2~{R},4~{S})-2-amino-7-azabicyclo [2.2.1]heptane-7-carbonyl]-5-methoxy-3-methylimidazo [1,2-a]pyridin-2-yl]-1-(cyclopropylmethyl)pyrrolo [2,3-b]pyridin-6-yl]ethyl]-3,4-difluoropyrrolidine-1-carboxamide], the IC50 came to 62.2 nM. As to `COc1cc(C(=O)N2CCC[C@@H](N)C2)cc2nc(-c3cc4ccc(N(C(F)F)S(C)(=O)=O)nc4n3CC3CC3)c(C)n12` [Example 388, ~{N}-[2-[7-[(3~{R})-3-aminopiperidine-1-carbonyl]-5-methoxy-3-methylimidazo [1,2-a]pyridin-2-yl]-1-(cyclopropylmethyl)pyrrolo [2,3-b]pyridin-6-yl]-~{N}-(difluoromethyl) methanesulfonamide], the 50% inhibitory concentration (IC50) worked out at 95.3 nM. `COc1cc(C(=O)N2CCC[C@@H](N)C2)cc2nc(-c3cc4ccc(-c5ccnc6c5CC(=O)N6)nc4n3CC3CC3)c(C)n12` [Example 600, 4-[2-[7-[(3~{R})-3-aminopiperidine-1-carbonyl]-5-methoxy-3-methylimidazo[1,2-a]pyridin-2-yl]-1-(cyclopropylmethyl)pyrrolo[2,3-b]pyridin-6-yl]-1,3-dihydropyrrolo[2,3-b] pyridin-2-one]: the IC50 came out at 666 nM. For `COc1cc(C(=O)N2[C@H]3CC[C@@H]2[C@H](N)C3)cc2nc(-c3cc4ccc([C@@H](C)NC(C)=O)nc4n3CC3CC3)c(C)n12` [Example 179, ~{N}-[(1~{R})-1-[2-[7-[(1~{R},2~{R},4~{S})-2-amino-7-azabicyclo[2.2.1]heptane-7-carbonyl]-5-methoxy-3-methylimidazo [1,2-a]pyridin-2-yl]-1-(cyclopropylmethyl)pyrrolo [2,3-b]pyridin-6-yl]ethyl] acetamide], the IC50 was 85 nM.

Consider `COc1cc(C(=O)N2[C@@H]3CC[C@H]2[C@@H](N)[C@@H](O)C3)cc2nc(-c3cc4ccc(N(C(F)F)S(C)(=O)=O)nc4n3CC3CC3)c(C)n12` [Example 414, ~{N}-[2-[7-[(1~{S}, 2~{R},3~{S},5~{R})-2-amino-3-hydroxy-8-azabicyclo[3.2.1]octane-8-carbonyl]-5-methoxy-3-methylimidazo [1,2-a]pyridin-2-yl]-1-(cyclopropylmethyl)pyrrolo [2,3-b]pyridin-6-yl]-~{N}-(difluoromethyl) methanesulfonamide], for which the half-inhibitory concentration (IC50) was determined as 5250 nM. Turning to `COc1cc(C(=O)N2C[C@H](N)CC[C@@H]2C)cc2nc(-c3cc4ccc(C#N)nc4n3CC3CC3)c(C)n12` [Example 610, 2-[7-[(2~{S},5~{R})-5-amino-2-methylpiperidine-1-carbonyl]-5-methoxy-3-methylimidazo[1,2-a]pyridin-2-yl]-1-(cyclopropylmethyl) pyrrolo[2,3-b] pyridine-6-carbonitrile], the IC50 came to 4630 nM.

On to `COc1cc(C(=O)N2C[C@@H]3CC[C@H]2CN3)cc2nc(-c3cc4ccc([C@@H](C)NC(=O)C56CC(F)(C5)C6)nc4n3CC3CC3)c(C)n12` [Example 3, ~{N}-[(1~{R})-1-[1-(cyclopropylmethyl)-2-[7-[(1~{S},4~{S})-2,5-diazabicyclo[2.2.2]octane-2-carbonyl]-5-methoxy-3-methylimidazo[1,2-a]pyridin-2-yl]pyrrolo [2,3-b]pyridin-6-yl]ethyl]-3-fluorobicyclo [1.1.1] pentane-1-carboxamide], for which the half-maximal inhibitory concentration (IC50) worked out at 11000 nM. In the case of `COc1cc(C(=O)N2C[C@H](N)CC[C@@H]2C)cc2nc(-c3cc4ccc(-c5c(C)n[nH]c5C)nc4n3CC3CC3)c(C)n12` [Example 611, [(2~{S},5~{R})-5-amino-2-methylpiperidin-1-yl]-[2-[1-(cyclopropylmethyl)-6-(3,5-dimethyl-1~{H}-pyrazol-4-yl)pyrrolo[2,3-b]pyridin-2-yl]-5-methoxy-3-methylimidazo[1,2-a]pyridin-7-yl]methanone] it was 726 nM.

These data come from patent US12240862B2, “Inhibitors of peptidylarginine deiminases” (Gilead Sciences, Inc., priority 2020, dated 2025).
